{
  "source": "patent US8609329B2",
  "about": "“FRET-based assay for screening modulators of receptor cycling” (Albany Medical College, priority 2007, dated 2013)",
  "test_system": "LDL-R-LDL-C complexes",
  "assay": "Automated FRET imaging of LDL-C-BODIPY/LDL-C-DiI internalized into MDCK cells (organization of LDL-R/LDL-C complexes)",
  "format": "cell-based",
  "experimental": "MDCK cells were bound with LDL-C-BODIPY and LDL-C-DiI for 2 h at 4° C. or incubated for various times (5-8 min and 20-30 min) at 37° C. in the presence or absence of BafilomycinA 1 (BafA1), a specific vacuolar-type ATPase inhibitor. Images were collected using a LSM Zeiss 510META confocal microscope with 63×1.4NA oil lens, 512×512 pixel resolution, no filter, 2× zoom. Then images were processed using an integrated and automated ImageJ plugin, which includes background removal, PFRET algorithm, ROI selection and E % analysis (48). […]\nFirst, images were background-subtracted and processed by PFRET software, which removed donor and acceptor SBT pixel-by-pixel on the basis of matched fluorescence levels between the double-label specimen and single-label reference specimens, using seven images; two single-label donor reference images (donor excitation/donor channel and acceptor channel); two single-label acceptor reference images (donor and acceptor excitation, both in the acceptor channel); three double-label images (donor excitation/donor and acceptor channel, acceptor excitation/acceptor emission. Elangovan et al., 2003; Wallrabe et al., 2003a,b). […] The pixel-by-pixel correction used to generate the processed FRET (PFRET) image was actually based on the average value of narrow fluorescence rangers, for more efficient running of the correction algorithm (Elangovan et al., 2003). […]",
  "data": [
    {"smiles": "CO/C1=C\\C(C)=C\\[C@@H](C)[C@@H](O)[C@@H](C)C/C(C)=C/C=C/[C@H](OC)[C@@H]([C@@H](C)[C@@H](O)[C@H](C)[C@@]2(O)C[C@@H](O)[C@H](C)[C@@H](C(C)C)O2)OC1=O", "note": "[BafA1, Bafilomycin A1]", "values": [
      {"measurement": "organization of LDL-R-LDL-C complexes (clustered vs. random)", "setting": "30 min internalization at 37° C., 100 nM BafA1", "result": "clustered organization"},
      {"measurement": "dependency of E % on acceptor levels", "setting": "LDL-C internalized at 37° C. for 30 min in the presence of 100 nM BafA1", "result": "clear independency from acceptor"}
    ]}
  ]
}
